From patent US11691977B2, “Cyclic ether derivatives of pyrazolo[1,5-A]pyrimidine-3-carboxyamide” (Boehringer Ingelheim International GmbH, priority 2015, dated 2023)

Assays:
[1] = target: PDE 2A (Homo sapiens (Human), UniProt O00408); experiment: Phosphodiesterase (PDE) 2A assay with fluorescent substrate (IMAP, fluorescence polarization); format: biochemical; details: PDE2A, read-out: PDE2 IC50
Protocol: (§1) The IMAP system (Molecular Device) using fluorescence polarization (FP) as detection principle was used to measure enzyme activity. A fluorescent labeled cAMP was used as substrate for the reaction, generating a labeled AMP. The fluorescent AMP binds specifically to the large M(III)-based nano-particles which reduces the rotational speed of the substrate and thus increases its polarization. Detailed Method: The inhibition of PDE 2A or 10 enzyme activity was assessed using IMAP-Phosphodiesterase-cAMP fluorescence labeled substrate (Molecular Devices, Order No. R7506), IMAP TR-FRET screening express (Molecular Devices, Order No. R8160, the TR-FRET component will not be used) and PDE 2A or PDE10 protein expressed upon baculovirus infection in SF9 cells. The cells were incubated after infection for ˜3 days and protein production was confirmed by Western Blot. The cells were collected by centrifugation and the pellet frozen in liquid nitrogen before it was resuspended in PBS containing 1% Triton X-100 and protease inhibitors. After 45 min incubation on ice, the cell debris was removed by centrifugation (13.000 rpm, 30 min). […] All reactions were performed in 384 well plates, Perkin Elmer black optiplates and IMAP reaction buffer with 0.1% Tween20 (kit component) Compounds were serial diluted in DMSO. […] Reaction is stopped by adding of 60 μl binding buffer for FP/cAMP (kit component).

[2] = target: PDE10 (Homo sapiens (Human), UniProt Q9Y233); experiment: Phosphodiesterase (PDE) 10 assay with fluorescent substrate (IMAP, fluorescence polarization); format: biochemical
Protocol: as §1

[3] = system: human MDR1 P-gp; experiment: Assessment of efflux in MDCK cells transfected with the human MDR1 gene (MDCK assay); format: in vitro ADME, canine; details: dog
Protocol: Assessment of Efflux in Madin-Darby Canine Kidney Cells Transfected with the Human MDR1 Gene (MDCK Assay)
Apparent permeability coefficients (PE) of the compounds across the MDCK-MDR1 cell monolayers are measured (pH 7.4, 37° C.) in apical-to-basal (AB) and basal-to-apical (BA) transport direction. AB permeability (PEAB) represents drug absorption from the blood into the brain and BA permeability (PEBA) drug efflux from the brain back into the blood via both passive permeability as well as active transport mechanisms mediated by efflux and uptake transporters that are expressed on the MDCK-MDR1 cells, predominantly by the overexpressed human MDR1 P-gp. The compounds are assigned to permeability/absorption classes by comparison of the AB permeabilities with the AB permeabilities of reference compounds with known in vitro permeability and oral absorption in the human. Identical or similar permeabilities in both transport directions indicate passive permeation, vectorial permeability points to additional active transport mechanisms. Higher PEBA than PEAB indicates the involvement of active efflux mediated by MDR1 P-gp. […]
MDCK-MDR1 cells (1-2×10e5 cells/1 cm2 area) are seeded on filter inserts (Costar transwell polycarbonate or PET filters, 0.4 μm pore size) and cultured (DMEM) for 7 days. […] Efflux ratio is calculated dividing the Papp (b-a) values by the Papp (a-b) values.

Chain of PDE 2A (O00408 whole entry, species assumed): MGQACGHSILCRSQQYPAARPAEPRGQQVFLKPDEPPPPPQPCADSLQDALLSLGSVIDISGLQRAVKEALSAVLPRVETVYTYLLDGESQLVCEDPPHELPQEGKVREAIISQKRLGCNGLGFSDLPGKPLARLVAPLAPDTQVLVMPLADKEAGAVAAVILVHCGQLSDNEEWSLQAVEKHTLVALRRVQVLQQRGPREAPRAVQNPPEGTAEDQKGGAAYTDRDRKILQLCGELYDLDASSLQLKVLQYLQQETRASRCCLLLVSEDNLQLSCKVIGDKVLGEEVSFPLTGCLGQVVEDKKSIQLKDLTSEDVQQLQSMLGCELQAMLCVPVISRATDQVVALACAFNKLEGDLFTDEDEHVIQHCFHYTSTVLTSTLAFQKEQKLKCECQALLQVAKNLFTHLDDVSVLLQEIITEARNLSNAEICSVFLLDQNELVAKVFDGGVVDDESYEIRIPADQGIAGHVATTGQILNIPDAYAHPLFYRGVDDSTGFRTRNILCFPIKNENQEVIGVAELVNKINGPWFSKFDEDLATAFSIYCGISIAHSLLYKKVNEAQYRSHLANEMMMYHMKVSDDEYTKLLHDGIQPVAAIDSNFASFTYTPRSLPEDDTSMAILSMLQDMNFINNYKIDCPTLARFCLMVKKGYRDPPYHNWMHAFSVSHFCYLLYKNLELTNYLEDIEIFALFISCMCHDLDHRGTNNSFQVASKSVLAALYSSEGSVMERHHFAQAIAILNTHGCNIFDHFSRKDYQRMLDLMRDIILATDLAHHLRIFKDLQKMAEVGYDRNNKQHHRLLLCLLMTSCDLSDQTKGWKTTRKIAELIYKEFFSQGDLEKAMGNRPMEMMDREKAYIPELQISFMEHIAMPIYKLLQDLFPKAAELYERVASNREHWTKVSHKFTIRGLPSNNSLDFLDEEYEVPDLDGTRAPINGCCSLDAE
Chain of PDE10 (Q9Y233 whole entry): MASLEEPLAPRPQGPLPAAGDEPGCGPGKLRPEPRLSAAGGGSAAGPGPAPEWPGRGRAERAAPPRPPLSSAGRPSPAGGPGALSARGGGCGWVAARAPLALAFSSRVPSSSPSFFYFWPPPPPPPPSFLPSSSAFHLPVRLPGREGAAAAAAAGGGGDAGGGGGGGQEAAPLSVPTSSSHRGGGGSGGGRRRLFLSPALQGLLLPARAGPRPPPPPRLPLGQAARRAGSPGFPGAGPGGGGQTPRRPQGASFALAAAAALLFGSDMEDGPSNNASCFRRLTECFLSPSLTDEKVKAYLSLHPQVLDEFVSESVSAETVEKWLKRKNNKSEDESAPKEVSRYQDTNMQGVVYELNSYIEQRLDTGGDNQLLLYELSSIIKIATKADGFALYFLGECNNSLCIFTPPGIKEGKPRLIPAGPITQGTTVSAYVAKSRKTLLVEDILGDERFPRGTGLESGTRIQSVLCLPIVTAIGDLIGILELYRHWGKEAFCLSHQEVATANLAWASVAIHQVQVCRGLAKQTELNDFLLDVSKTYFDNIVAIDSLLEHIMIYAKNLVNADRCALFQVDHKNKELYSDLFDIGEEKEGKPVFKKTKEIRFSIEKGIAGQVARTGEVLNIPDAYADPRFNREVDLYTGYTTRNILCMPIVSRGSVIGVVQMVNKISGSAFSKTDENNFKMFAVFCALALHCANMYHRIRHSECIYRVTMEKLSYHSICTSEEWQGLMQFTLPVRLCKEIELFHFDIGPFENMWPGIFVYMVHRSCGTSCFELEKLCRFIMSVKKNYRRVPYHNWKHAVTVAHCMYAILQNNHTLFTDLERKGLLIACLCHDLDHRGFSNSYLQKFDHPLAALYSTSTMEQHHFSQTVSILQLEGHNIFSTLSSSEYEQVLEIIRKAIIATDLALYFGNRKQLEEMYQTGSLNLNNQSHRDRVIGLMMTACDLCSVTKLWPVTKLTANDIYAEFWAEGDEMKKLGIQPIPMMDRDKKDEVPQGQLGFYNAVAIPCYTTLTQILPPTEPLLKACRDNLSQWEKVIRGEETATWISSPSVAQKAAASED

How did the IC50 [1] turn out when `Cc1nn2cc(C3CC3)cnc2c1C(=O)NC1(c2ccc(C(F)(F)F)cn2)CCOCC1` [Example 25] was run?
Its IC50 is 0.088 µM.

And the IC50 [2]?
The IC50 was 9.07 µM.

What about the efflux ratio ([3]; pH 7.4, MDCK-MDR1, Papp (b-a) divided by Papp (a-b)) of the same compound?
The efflux ratio was 0.8.

What about the Papp A→B ([3]; MDCK-MDR1, apical-to-basal, pH 7.4, 37° C.) of the same compound?
The Papp A→B was 100 ×10⁻⁶ cm/s.
